This is an account of results in patent US11066369B2, “N-(pyridin-2-yl)pyridine-sulfonamide derivatives and their use in the treatment of disease” (Novartis AG, priority 2016, dated 2021).

Where two headings read alike, the source gives them in different places.

The target in the experiment is T1, horseradish peroxidase (HRP) tagged delF508-CFTR (Homo sapiens, UniProt P13569, DEL508-508).
T1 construct: expressed in transfected cells
Briefly: Measurement of delF508-CFTR-HRP surface expression in CFBE41o- cells.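 On DelF508-CFTR-HRP Amax %: percent efficacy relative to reference corrector lumacaftor.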 Type of experiment: cell-based. The following applies: for EC50: read-out: DelF508-CFTR-HRP EC50; for Emax: read-out: DelF508-CFTR-HRP Amax %. The method in brief:
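CFBE41o- bronchial epithelial cells stably expressing delF508-CFTR with HRP in the fourth extracellular loop; expression induced 48h with 500 ng/mL doxycycline, then compounds added (top 10 μM, 10-point 3-fold series, ≤0.5% DMSO) for 24h at 37° C. Surface HRP measured by luminescence with cell-impermeant substrate; EC50 from logistic fit of triplicates, plate-normalized to lowest concentration; efficacy also relative to a reference corrector.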

[1] abbreviates: CFBE41o- cells, mean of at least two replicates.
Setting [2] is: CFBE41o- cells, surface expression Amax.
Setting [3] is: delF508-CFTR-HRP surface expression, CFBE41o- cells.

T1 sequence (P13569 with tags, fused parts or gaps DEL508-508): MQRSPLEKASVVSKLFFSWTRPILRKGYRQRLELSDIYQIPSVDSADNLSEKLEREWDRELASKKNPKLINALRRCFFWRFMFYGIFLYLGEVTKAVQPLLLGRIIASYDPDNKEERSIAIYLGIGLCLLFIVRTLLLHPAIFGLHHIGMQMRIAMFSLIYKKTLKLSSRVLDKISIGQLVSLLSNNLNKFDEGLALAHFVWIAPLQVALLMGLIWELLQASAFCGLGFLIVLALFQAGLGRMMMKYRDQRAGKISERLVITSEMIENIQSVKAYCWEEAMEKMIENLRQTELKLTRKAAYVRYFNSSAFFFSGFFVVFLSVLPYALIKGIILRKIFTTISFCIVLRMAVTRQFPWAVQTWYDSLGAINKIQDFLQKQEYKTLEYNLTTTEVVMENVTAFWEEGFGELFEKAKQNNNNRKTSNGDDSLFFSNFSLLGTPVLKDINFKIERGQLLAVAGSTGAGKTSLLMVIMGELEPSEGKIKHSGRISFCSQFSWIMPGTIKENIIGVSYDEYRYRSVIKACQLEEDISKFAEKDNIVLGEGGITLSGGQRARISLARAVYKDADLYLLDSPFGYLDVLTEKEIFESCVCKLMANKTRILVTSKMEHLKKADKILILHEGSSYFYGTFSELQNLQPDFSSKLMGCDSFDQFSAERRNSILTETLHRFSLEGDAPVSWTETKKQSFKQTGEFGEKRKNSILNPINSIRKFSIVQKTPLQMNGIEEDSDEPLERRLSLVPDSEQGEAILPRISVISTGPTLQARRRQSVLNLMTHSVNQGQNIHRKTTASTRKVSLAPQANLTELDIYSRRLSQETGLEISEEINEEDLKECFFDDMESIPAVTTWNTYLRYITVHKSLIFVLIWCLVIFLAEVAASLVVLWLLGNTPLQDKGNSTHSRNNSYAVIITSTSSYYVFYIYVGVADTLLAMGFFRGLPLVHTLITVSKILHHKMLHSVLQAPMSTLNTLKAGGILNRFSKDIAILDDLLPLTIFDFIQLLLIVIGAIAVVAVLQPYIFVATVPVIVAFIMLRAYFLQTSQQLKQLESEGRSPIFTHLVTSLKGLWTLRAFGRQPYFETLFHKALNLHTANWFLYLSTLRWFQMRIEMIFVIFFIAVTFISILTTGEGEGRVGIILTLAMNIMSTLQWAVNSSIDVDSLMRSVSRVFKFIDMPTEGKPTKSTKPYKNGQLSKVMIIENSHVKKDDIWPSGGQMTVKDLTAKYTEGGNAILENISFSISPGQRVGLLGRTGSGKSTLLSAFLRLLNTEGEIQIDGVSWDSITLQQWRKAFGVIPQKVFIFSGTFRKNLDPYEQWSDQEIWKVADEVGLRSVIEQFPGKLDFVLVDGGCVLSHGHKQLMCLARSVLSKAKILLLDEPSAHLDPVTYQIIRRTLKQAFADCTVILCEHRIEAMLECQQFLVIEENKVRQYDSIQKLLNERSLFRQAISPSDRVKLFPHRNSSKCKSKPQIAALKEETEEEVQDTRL

Take `Cc1ccccc1-c1cccc(NS(=O)(=O)c2cccc(N3CCC[C@@](C)(C(=O)O)C3)n2)n1` [Example 412, (R)-3-methyl-1-(6-(N-(6-(o-tolyl)pyridin-2-yl)sulfamoyl)pyridin-2-yl)piperidine-3-carboxylic Acid]: the EC50 (usually the concentration that produces a half-maximal response) under setting [1] was 1890 nM. Further, the Emax under setting [2] worked out at 221%.
Regarding `Nc1cccc(S(=O)(=O)Nc2ccc(Cl)c(-c3c(F)cc(F)cc3F)n2)n1` [Example 86, 6-amino-N-(5-chloro-6-(2,4,6-trifluorophenyl)pyridin-2-yl)pyridine-2-sulfonamide], under setting [3], the Emax amounted to 108% and the EC50 came to 3530 nM.
Consider `COC(=O)C1(C)CCN(c2cccc(S(=O)(=O)Nc3ccc(C(F)(F)F)c(-c4ccccc4C4CC4)n3)n2)CC1` [Example 236, methyl 1-(6-(N-(6-(2-cyclopropylphenyl)-5-(trifluoromethyl)pyridin-2-yl)sulfamoyl)pyridin-2-yl)-4-methylpiperidine-4-carboxylate], for which, under setting [3], the Emax was determined as 602% and the EC50 came out at 573 nM.
Regarding `Cc1ccccc1-c1nc(NS(=O)(=O)c2cccc(N3CCC34CNC4)n2)ccc1C(F)(F)F` [Example 313, 6-(1,6-diazaspiro[3.3]heptan-1-yl)-N-(6-(o-tolyl)-5-(trifluoromethyl)pyridin-2-yl)pyridine-2-sulfonamide], under setting [3], the Emax stood at 128% and the EC50 stood at 4570 nM.
As for `O=C(O)C1CC12CCN(c1cccc(S(=O)(=O)Nc3ccc(C(F)(F)F)c(-c4ccccc4C4CC4)n3)n1)C2` (stereo not drawn) [Example 420, 5-(6-(N-(6-(2-cyclopropylphenyl)-5-(trifluoromethyl)pyridin-2-yl)sulfamoyl)pyridin-2-yl)-5-azaspiro[2.4]heptane-1-carboxylic Acid], the EC50 under setting [1] worked out at 1920 nM. The Emax under setting [2] was determined as 705%.
With `Cc1ccccc1-c1nc(NS(=O)(=O)c2cccc(N3CCO[C@@H](C(=O)O)C3)n2)ccc1C(F)(F)F` [Example 339, (2R)-4-(6-{[6-(2-methylphenyl)-5-(trifluoromethyl)pyridin-2-yl]sulfamoyl}pyridin-2-yl)morpholine-2-carboxylic Acid], under setting [3], the Emax is 122% and the EC50 was found to be 2310 nM.
As to `Cc1ccc(C#N)cc1-c1nc(NS(=O)(=O)c2cccc(N)n2)ccc1C(F)(F)F` [Example 83, 6-amino-N-(6-(5-cyano-2-methylphenyl)-5-(trifluoromethyl)pyridin-2-yl)pyridine-2-sulfonamide], under setting [3], the Emax amounted to 115% and the EC50 was determined as 4110 nM.
On the same counts, the results for `Cc1cc(C#N)ccc1-c1nc(NS(=O)(=O)c2cccc(N)n2)ccc1Cl` [Example 91, 6-amino-N-(5-chloro-6-(4-cyano-2-methylphenyl)pyridin-2-yl)pyridine-2-sulfonamide] are 41.7% and 2200 nM.
On the same counts, the results for `Nc1cccc(S(=O)(=O)Nc2ccc(Cl)c(-c3ccccc3Cl)n2)n1` [Example 24, 6-amino-N-(5-chloro-6-(2-chlorophenyl)pyridin-2-yl)pyridine-2-sulfonamide] are 485% and 1460 nM.
On to `O=C(O)[C@]12CC[C@H](O1)[C@H](Nc1cccc(S(=O)(=O)Nc3ccc(C(F)(F)F)c(-c4ccccc4C4CC4)n3)n1)C2` (racemic) [Example 438, rac-(1RS,3RS,4SR)-3-((6-(N-(6-(2-cyclopropylphenyl)-5-(trifluoromethyl)pyridin-2-yl)sulfamoyl)pyridin-2-yl)amino)-7-oxabicyclo[2.2.1]heptane-1-carboxylic Acid], for which the EC50 under setting [1] came out at 1980 nM. Moreover, the Emax under setting [2] amounted to 53.4%.
In the case of `O=S(=O)(Nc1ccc(Cl)c(-c2ccccc2C(F)(F)F)n1)c1cccc(N[C@@H]2COC[C@H]2O)n1` [Example 126, N-(5-chloro-6-(2-(trifluoromethyl)phenyl)pyridin-2-yl)-6-(((3R,4S)-4-hydroxytetrahydrofuran-3-yl)amino)pyridine-2-sulfonamide], under setting [3], the Emax was determined as 235% and the EC50 was 2180 nM.
For the compound `CC(C)c1ccccc1-c1nc(NS(=O)(=O)c2cccc(N3CCCC(C)(C(=O)O)C3)n2)ccc1Cl` (stereo not drawn) [Example 388, 1-(6-(N-(5-chloro-6-(2-isopropylphenyl)pyridin-2-yl)sulfamoyl)pyridin-2-yl)-3-methylpiperidine-3-carboxylic Acid], the EC50 under setting [1] was found to be 1020 nM. For the same compound, the Emax under setting [2] stood at 928%.
On to `Nc1cccc(S(=O)(=O)Nc2ccc(Cl)c(-c3ccccc3C3CC3)n2)n1` [Example 19, 6-amino-N-(5-chloro-6-(2-cyclopropylphenyl)pyridin-2-yl)pyridine-2-sulfonamide], for which, under setting [3], the Emax was determined as 501% and the EC50 was determined as 1300 nM.
For the compound `Cc1cccc(C)c1-c1ccc(F)c(NS(=O)(=O)c2cccc(N)n2)n1` [Example 93, 6-amino-N-(6-(2,6-dimethylphenyl)-3-fluoropyridin-2-yl)pyridine-2-sulfonamide], under setting [3], the Emax was determined as 23.5% and the EC50 was 3550 nM.
With `Cc1ccc(Cl)cc1-c1nc(NS(=O)(=O)c2cccc(N3CCC(C)(C(=O)O)CC3)n2)ccc1C(F)(F)F` [Example 451, 1-(6-(N-(6-(5-chloro-2-methylphenyl)-5-(trifluoromethyl)pyridin-2-yl)sulfamoyl)pyridin-2-yl)-4-methylpiperidine-4-carboxylic Acid], the EC50 under setting [1] was determined as 2680 nM. The Emax under setting [2] turned out to be 847%.
Consider `CCCOc1ccccc1-c1nc(NS(=O)(=O)c2cccc(N3CCC[C@@](C)(C(=O)O)C3)n2)ccc1C(F)(F)F` [Example 329, (R)-3-methyl-1-(6-(N-(6-(2-propoxyphenyl)-5-(trifluoromethyl)pyridin-2-yl)sulfamoyl)pyridin-2-yl)piperidine-3-carboxylic Acid], for which the EC50 under setting [3] worked out at 930 nM.
Consider `CC(C)c1ccccc1-c1nc(NS(=O)(=O)c2cccc(N3CCC[C@H](C(=O)O)C3)n2)ccc1C(F)(F)F` [Example 376, (S)-1-(6-(N-(6-(2-isopropylphenyl)-5-(trifluoromethyl)pyridin-2-yl)sulfamoyl)pyridin-2-yl)piperidine-3-carboxylic Acid], for which, under setting [3], the Emax stood at 629% and the EC50 stood at 913 nM.
As to `CC(C)c1ccccc1-c1nc(NS(=O)(=O)c2cccc(N[C@@H]3C[C@@]4(C(=O)O)CC[C@@H]3O4)n2)ccc1C(F)(F)F` (racemic) [Example 403, rac-(1RS,3RS,4SR)-3-((6-(N-(6-(2-isopropylphenyl)-5-(trifluoromethyl)pyridin-2-yl)sulfamoyl)pyridin-2-yl)amino)-7-oxabicyclo[2.2.1]heptane-1-carboxylic Acid], the concentration giving a half-maximal response (EC50) under setting [1] is 2360 nM. In addition, the Emax under setting [2] turned out to be 155%.
For the compound `CC1(C(=O)O)CCN(c2cccc(S(=O)(=O)Nc3ccc(C(F)(F)F)c(-c4ccccc4C4CCCC4)n3)n2)CC1` [Example 379, 1-(6-(N-(6-(2-cyclopentylphenyl)-5-(trifluoromethyl)pyridin-2-yl)sulfamoyl)pyridin-2-yl)-4-methylpiperidine-4-carboxylic Acid], the EC50 under setting [1] was determined as 1080 nM. Where the note is “CFBE41o-”, the Emax was 646%.
`Cc1c(C#N)cccc1-c1nc(NS(=O)(=O)c2ccnc(N)c2)ccc1Cl` [Example 87, 2-amino-N-(5-chloro-6-(3-cyano-2-methylphenyl)pyridin-2-yl)pyridine-4-sulfonamide]: under setting [3], the Emax was found to be 93.8% and the EC50 was determined as 4100 nM.
